Test results published in publication PMC8419995, “In vitro and in vivo efficacy of thiacloprid against Echinococcus multilocularis” (Parasites & Vectors, 2021).

Key:
[1] = tested on: E. multilocularis metacestodes; experiment: PGI assay (phosphoglucose isomerase release) on metacestode vesicles; format: cell-based, Echinococcus multilocularis
Experimental: The efficacy of thiacloprid against the E. multilocularis metacestode was evaluated by applying a phosphoglucose isomerase (PGI) assay that measures the release of the enzyme phosphoglucose isomerase upon physical impairment of metacestodes. In brief, medium without phenol red (DMEM, 1% penicillin/streptomycin sulfate, 2 mM L-glutamine) was added to the same volume of vesicles and distributed to 48-well (12–15 per vesicles) plates. Subsequently, metacestodes were incubated for 5 days with different concentrations (0, 0.06, 1.2, 2.5, 5, 10, 20, 40, 80 and 160 μM) of thiacloprid or praziquantel (PZQ), after which PGI release was quantified exactly as described in Stadelmann et al.. Triton X-100 (0.1% in PBS) was applied as a positive control (maximal release of vesicle fluid). Each condition was tested in biological triplicate. After 5 days of incubation, 200 μl medium supernatant was collected from each well and stored at − 20 °C until further measurements were performed. PGI measurements were performed as described earlier, except that an Infinite M200 PRO reader (Tecan, Männedorf, Switzerland) was used to measure the increase in absorbance at 340 nm. PGI activity was calculated using the EC50 calculator (https://www.aatbio.com/tools/ec50-calculator) from the linear regression of the enzyme reaction over time and presented as a percentage relative to the values obtained by treatment of vesicles with 0.1% Triton X-100.

[2] = tested on: E. multilocularis germinal cells; experiment: CellTiter-Glo viability assay on germinal cells; format: cell-based, Echinococcus multilocularis; details: 5 days
Experimental: To evaluate the activity of thiacloprid against parasitic stem cells, germinal cells from in vitro metacestode vesicles were investigated as described by Spiliotis et al.. Briefly, 20 units of cells were distributed into a black 384-well plate. Different concentrations of thiacloprid or PZQ (0, 0.06, 1.2, 2.5, 5, 10, 20, 40, 80 and 160 μM) were added to the cells. After culture at 37 °C for 5 days under a humid nitrogen atmosphere, 25 μl CellTiter-Glo containing 1% Triton X-100 was added. The plates were incubated at room temperature in the dark for 15 min. After the total destruction of the cellular aggregates, luminescence was measured using an Infinite M200 PRO reader (Tecan), and 0 μM values were set to 100% viability. The IC50 values were calculated using an online IC50 calculator after logit-log transformation. Four independent replicates were conducted.

acetylcholinesterase = experiment: Acetylcholinesterase activity (Ellman) in extracts of protoscoleces, metacestodes and germinal cells; format: biochemical, Echinococcus multilocularis; details: extract; thiacloprid 5 μM, 37 °C 10 min; BW284c51 positive control
Experimental: The effects of thiacloprid on the acetylcholinesterase activity of E. multilocularis protoscoleces, metacestodes and germinal cells were determined according to a previously described method. The protoscoleces, metacestode and germinal cells were washed twice with PBS and homogenized with an electric homogenizer in precooled PBS. Centrifugation of the homogenates was performed at 100,000×g for 30 min. The protein concentration of the supernatant was determined by the modified Lowry method according to the instructions, and the concentration was adjusted to 2 mg/ml. Thiacloprid (5 μM) was added to the extract and incubated at 37 °C for 10 min. The extract was supplemented with 0.1% DMSO as control. Subsequently, acetylcholinesterase activity was assessed according to Ellman’s procedure using a microplate with 260 µl of 0.1 M PBS buffer pH 8.0, 10 µl of 10 mM dithiobisnitrobenzoic acid solution, 2.5 µl of 75 mM substrate (acetylthiocholine iodide) and 25 µl of the sample treated with thiacloprid. The OD increment was measured at 412 nm using an Infinite M200 PRO reader (Tecan). Each experiment was conducted three times. BW284c51 (CAS number: 402-40-4, Sigma) was used as a positive control.

[3] = Toxicity of thiacloprid in vivo (serum biochemistry, blood cells, histopathology); details: normal BALB/c mice, 6 weeks; for Alanine aminotransferase / Albumin / Alkaline phosphatase / Aspartate aminotransferase / Blood urea nitrogen / Creatinine / Direct bilirubin / Globulin / Indirect bilirubin / Total bilirubin / Total protein: serum; for Hemoglobin / PLT / RBC / WBC: whole blood
Experimental: Based on the previous thiacloprid dose concentration, we selected 15 mg/kg and 30 mg/kg thiacloprid concentrations to evaluate the toxicity in vivo [35]. The toxicity of thiacloprid was assessed in normal BALB/c mice. Normal mice were randomly divided into three groups and received the following treatments (6 animals per group): The control group was not administered any drug; the Thia15 group and Thia30 group received thiacloprid orally (15 mg/kg/day and 30 mg/kg/day). After 6 weeks of treatment, blood samples were collected from the orbital sinus of mice under anesthesia before euthanasia, which were preserved in EDTA-K2 anticoagulant tubes for white blood cell (WBC), hemoglobin (Hb) and platelet (PLT) analysis. For assessing biochemical indicators, blood samples were incubated in anticoagulant-free tubes at 37 °C for 1 h, followed by 3500 rpm centrifugation for 10 min. The isolated serum samples were used to detect relative levels of alanine aminotransferase (ALT), aspartate aminotransferase (AST), total bilirubin (TBIL), direct bilirubin (DBIL), indirect bilirubin (IBIL), total protein (TP), albumin (ALB), alkaline phosphatase (ALP), creatinine (CREA) and blood urea nitrogen (BUN). Subsequently, mice were sacrificed for harvesting the liver and kidneys, which were fixed in 4% paraformaldehyde, prepared for hematoxylin–eosin (HE) staining and observed under a Zeiss Vert.A1 microscope.
Tissues from experimental animals were washed in PBS and fixed in 4% paraformaldehyde at room temperature for […]. On the next day, they were dehydrated, embedded, and sliced into 5-μm sections. After dewaxing and dehydrating, sections were stained with hematoxylin for 2–5 min, and re-stained with eosin for 15 s. They were sealed with neutral gum and observed under a BX51 microscope (Olympus, Tokyo, Japan).

N#C/N=C1\SCCN1Cc1ccc(Cl)nc1 [thiacloprid]
Activity in PGI assay screening ([1]; 20 μM, 5 days and 12 days, active if exceeding 20% relative PGI release): showed activity
EC50 ([1]; Echinococcus multilocularis, 120 h, read-out: EC50 against E. multilocularis metacestode by the PGI assay): 4.54 ± 1.1 µM
viability at 2.5 µM ([2]; Echinococcus multilocularis, 120 h, 2.5 μM, read-out: Cell viability rate of germinal cells): 58.3 ± 6.09%
viability at 5 µM ([2]; Echinococcus multilocularis, 120 h, 5 μM, read-out: Cell viability rate of germinal cells): 38.3 ± 4.47%
IC50 ([2]; Echinococcus multilocularis, 120 h, CellTiter-Glo, read-out: IC50 against germinal cells): 2.89 ± 0.34 µM
Inhibition rate of germinal cell viability ([2]; more than 10 μM): more than 80%
Acetylcholinesterase activity in protoscoleces, metacestode vesicles and germinal cells (acetylcholinesterase): suppressed
Alanine aminotransferase ([3]; 15 mg/kg/day orally): 66.00 ± 5.33 U/L
Albumin ([3]; 15 mg/kg/day orally): 28.95 ± 2.35 g/L
Alkaline phosphatase ([3]; 15 mg/kg/day orally): 57.67 ± 5.43 U/L
Aspartate aminotransferase ([3]; 15 mg/kg/day orally): 164.70 ± 36.71 U/L
Blood urea nitrogen ([3]; 15 mg/kg/day orally): 7.23 ± 1.87 mmol/L
Creatinine ([3]; 15 mg/kg/day orally): 16.08 ± 1.87 μM/L
Direct bilirubin ([3]; 15 mg/kg/day orally): 0.13 ± 0.05 μM/L
Globulin ([3]; 15 mg/kg/day orally): 36.67 ± 4.71 g/L
Indirect bilirubin ([3]; 15 mg/kg/day orally): 0.44 ± 0.17 μM/L
Total bilirubin ([3]; 15 mg/kg/day orally): 0.60 ± 0.10 μM/L
Total protein ([3]; 15 mg/kg/day orally): 65.90 ± 4.76 g/L
Hemoglobin ([3]; 15 mg/kg/day orally): 203.00 ± 11.15 g/L
PLT ([3]; 15 mg/kg/day orally): 613.70 ± 145.00 10^9/L
RBC ([3]; 15 mg/kg/day orally): 11.39 ± 1.48 10^12/L
WBC ([3]; 15 mg/kg/day orally): 11.69 ± 1.30 10^9/L
Alanine aminotransferase ([3]; 30 mg/kg/day orally): 67.50 ± 5.01 U/L
Albumin ([3]; 30 mg/kg/day orally): 29.72 ± 1.49 g/L
Alkaline phosphatase ([3]; 30 mg/kg/day orally): 58.50 ± 7.82 U/L
Aspartate aminotransferase ([3]; 30 mg/kg/day orally): 180.50 ± 45.71 U/L
Blood urea nitrogen ([3]; 30 mg/kg/day orally): 7.15 ± 0.47 mmol/L
Creatinine ([3]; 30 mg/kg/day orally): 15.18 ± 2.44 μM/L
Direct bilirubin ([3]; 30 mg/kg/day orally): 0.19 ± 0.16 μM/L
Globulin ([3]; 30 mg/kg/day orally): 37.77 ± 4.81 g/L
Indirect bilirubin ([3]; 30 mg/kg/day orally): 0.42 ± 0.19 μM/L
Total bilirubin ([3]; 30 mg/kg/day orally): 0.59 ± 0.16 μM/L
Total protein ([3]; 30 mg/kg/day orally): 65.82 ± 4.39 g/L
Hemoglobin ([3]; 30 mg/kg/day orally): 206.0 ± 9.93 g/L
PLT ([3]; 30 mg/kg/day orally): 670.80 ± 150.20 10^9/L
RBC ([3]; 30 mg/kg/day orally): 9.58 ± 0.82 10^12/L
WBC ([3]; 30 mg/kg/day orally): 12.72 ± 1.75 10^9/L
Histopathological examination of liver and kidneys (HE staining) ([3]; 15 and 30 mg/kg/day orally): did not show obvious histopathological changes or injury
